Experimental data as given in PubChem BioAssay (NCI).
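Step 1: Grow cells in 96-well plates. Step 2: Expose to compound for 48 hours at 5 concentrations. Step 3: Interpolate endpoints linearly; if unreached, use highest concentration. GI50 = concentration required for 50% inhibition of growth. TGI marks complete inhibition of growth.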 Where a SMILES comes first, the peptide text is derived from it. [ ]: non-standard residue; d: D form. Ac5c = NC1(C(=O)O)CCCC1

Key:
Assay in all cases: growth of human tumour cells (NCI), 48 h
COLO 205 colon = system: COLO 205 colon
KM12 colon = system: KM12 colon
LOX IMVI melanoma = system: LOX IMVI melanoma
TK-10 renal = system: TK-10 renal
SF-268 CNS = system: SF-268 CNS
IGROV1 ovarian = system: IGROV1 ovarian
OVCAR-4 ovarian = system: OVCAR-4 ovarian
ACHN renal = system: ACHN renal
HOP-92 NSCLC = system: HOP-92 NSCLC
HL-60(TB) leukemia = system: HL-60(TB) leukemia

Row | Structure (SMILES) | GI50 (COLO 205 colon) [µM] | TGI (COLO 205 colon) [µM] | GI50 (KM12 colon) [µM] | TGI (KM12 colon) [µM] | GI50 (LOX IMVI melanoma) [µM] | TGI (LOX IMVI melanoma) [µM] | GI50 (TK-10 renal) [µM] | TGI (TK-10 renal) [µM] | GI50 (SF-268 CNS) [µM] | TGI (SF-268 CNS) [µM] | GI50 (IGROV1 ovarian) [µM] | TGI (IGROV1 ovarian) [µM] | GI50 (OVCAR-4 ovarian) [µM] | TGI (OVCAR-4 ovarian) [µM] | GI50 (ACHN renal) [µM] | TGI (ACHN renal) [µM] | GI50 (HOP-92 NSCLC) [µM] | TGI (HOP-92 NSCLC) [µM] | GI50 (HL-60(TB) leukemia) [µM] | TGI (HL-60(TB) leukemia) [µM]
1 | Cc1ccccc1NC(=O)N/C(N)=N/c1nc(-c2cccc([N+](=O)[O-])c2)cs1 | 3.89 | > 100 | 2.49 | > 100 | 1.79 | 5.17 | 5.33 | 14.6 | 2.67 | 8.88 | 1.71 | 11.5 | 3.53 | > 100 | 2.52 | 8.46 | 2.15 | 6.6 | 3.56 | > 100
2 | NC1(C(=O)NC2(C(=O)O)CCCC2)CCCC1 (H-[Ac5c]-[Ac5c]-OH) |  | > 100 |  | > 100 |  | > 100 |  | > 100 |  | > 100 |  | > 100 |  | > 100 |  | > 100 |  | > 100 |  | > 100
3 | COc1cc(/C=C/C(=O)CC(=O)/C=C/c2cc(OC)c(OC)c(OC)c2)cc(OC)c1OC | 6.93 | > 100 | 4.58 | 63 | 2.19 | 9.14 | 4.08 | 19.2 | 8.23 | > 100 | 2.83 | 8.22 | 3.27 | 19.7 | 3.95 | 14.1 | 2.47 | 8.34 | 5.15 | > 100
4 | COc1cc(OC)cc(C2CC(=O)Nc3c2c(C)nn3-c2nc3ccccc3[nH]2)c1 (centres undefined) | 2.7 | 6.55 | 2.79 | 7.68 | 2.09 | 4.44 | 3.04 | 45.5 | 3.57 | > 100 | 2.74 | 7.76 | 4.64 | > 100 | 3.94 | 42.4 | 2.59 | 6.63 | 2.34 | 7.37
5 | CCCCCCCCC[C@@H]1CC(=O)OCC2OC(O[C@H](CCCCCCCCC)CC(=O)OCC3OC(O[C@H](CCCCCCCCC)CC(=O)OCC4OC(O1)C(O)C(O)C4O)C(O)C(O)C3O)C(O)C(O)C2O (some centres undefined) |  | 8.3 |  | 20.2 |  | 11.7 |  | 23.1 |  | 7.74 |  | 28.2 |  | 32.3 |  | 26.1 |  | 22.6 |  | 31.8
6 | CC(=O)Nc1ccc(C(=O)NN2C(=O)C(Cl)C2c2ccc(Cl)cc2)cc1 (centres undefined) |  | > 100 |  | > 100 |  |  |  | > 100 |  | > 86.3 |  | > 100 |  | > 100 |  | > 100 |  | 82.1 |  | > 100
7 | CCNC(=O)CCN(C(=O)O)S(=O)(=O)c1ccc(NC(=O)c2ccccc2)cc1 |  | > 100 |  | > 100 |  | 43.8 |  | > 100 |  | > 100 |  | > 100 |  | > 100 |  | > 100 |  | > 100 |  | > 100
8 | O=S(=O)(NC1=NCCN1C(=S)SN1CCn2c1nsc2=S)c1ccc(Br)cc1 | 28.7 | 86.3 | 25.5 | > 100 | 19.4 | 39.6 | 22 | 83.5 | 39.4 | > 100 | 30.7 | 95 | 49.2 | > 100 | 22.2 | 73.6 | 0.0273 | 36.7 | 24.3 | 60.1
9 | CC/C(C)=C1\CCC(CN2CCOCC2)C1=O (centres undefined) |  |  |  | > 100 |  | 30.5 |  | 28 |  | 26 |  | 38.1 |  | 31.7 |  | 19.8 |  | 32.4 |  | 44
10 | CC1=C(C(=O)Nc2ccccc2C)C(c2ccc(Cl)c(Cl)c2)C(C(=O)Nc2ccccc2C)=C(C)N1 |  | 30 |  | 87.4 |  | 37.5 |  | > 100 |  | 47.3 |  | 93.1 |  | > 100 |  | > 100 |  | 33.4 |  | 45.4
11 | CC(=O)[O-].CC(=O)[O-].[Pt+2].c1cscn1.c1cscn1 | > 100 | > 100 | > 100 | > 100 | 65.7 | > 100 | > 100 | > 100 | > 100 | > 100 | > 100 | > 100 | 74.3 | > 100 | 19.7 | 42.2 | > 100 | > 100 | 36.4 | > 100
12 | O=C(/C=C/c1ccc([N+](=O)[O-])o1)N1CCN(Cc2ccccc2)CC1 |  |  |  | 27.1 |  | 26.6 |  | 37.9 |  | 29.5 |  | 32.1 |  | 29.7 |  | 28.3 |  | 27.8 |  | 18.4
13 | O=[N+]([O-])c1cccc(C2N3CCCCC3[C@@H]3c4[nH]c5ccccc5c4CCN23)c1 (some centres undefined) |  | 32.8 |  |  |  |  |  | 35.4 |  | 27.4 |  | 39.2 |  | 32.2 |  | 38.7 |  | 36.2 |  | 29
14 | CC[C@H](NC(=O)[C@H](C)NC)C(=O)N1C[C@@H](O)C[C@H]1Cc1c(-c2[nH]c3cc(F)ccc3c2C[C@@H]2C[C@H](O)CN2C(=O)[C@H](CC)NC(=O)[C@H](C)NC)[nH]c2cc(F)ccc12 | > 55.8 | > 100 | > 100 | > 100 | > 59.6 | > 100 | > 100 | > 100 | > 100 | > 100 |  |  | 0.0598 |  | > 100 | > 100 | 7.7 | 40.8 | 7.15 | 42.9
15 | CCN(CC)CCC(=O)NC1c2ccc(Cl)cc2Oc2c(C)cccc21 (centres undefined) |  | 40.1 |  | 30.4 |  | 29.1 |  | 27.9 |  | 38.9 |  | 40 |  | 28.9 |  |  |  | 40.8 |  | 41.2
16 | O=C1c2ccccc2-c2cccc3ccc(Cc4ccc5ccccc5c4)c1c23 |  | > 100 |  | > 100 |  |  |  | > 100 |  | > 100 |  | > 100 |  | > 100 |  | > 100 |  | > 100 |  | > 100
17 | C=CC1(C(=O)O)CCC(C(C)(C)C)CC1 (centres undefined) |  | > 100 |  | > 100 |  |  |  | > 100 |  | > 100 |  | > 100 |  | > 100 |  | > 100 |  | > 100 |  | > 100
